From US10344060B2 (priority 2013, dated 2019)

What was measured:
hNav1.5 = hNav1.5 (Homo sapiens, UniProt Q14524); assay: cell-based; conditions: Table 12; ratio of PX tonic IC50 values
hNav1.4 = hNav1.4 (Homo sapiens, UniProt P35499); assay: cell-based; format: cell-based; conditions: Table 12; ratio of PX tonic IC50 values
hNav1.4, sequence (P35499 whole entry): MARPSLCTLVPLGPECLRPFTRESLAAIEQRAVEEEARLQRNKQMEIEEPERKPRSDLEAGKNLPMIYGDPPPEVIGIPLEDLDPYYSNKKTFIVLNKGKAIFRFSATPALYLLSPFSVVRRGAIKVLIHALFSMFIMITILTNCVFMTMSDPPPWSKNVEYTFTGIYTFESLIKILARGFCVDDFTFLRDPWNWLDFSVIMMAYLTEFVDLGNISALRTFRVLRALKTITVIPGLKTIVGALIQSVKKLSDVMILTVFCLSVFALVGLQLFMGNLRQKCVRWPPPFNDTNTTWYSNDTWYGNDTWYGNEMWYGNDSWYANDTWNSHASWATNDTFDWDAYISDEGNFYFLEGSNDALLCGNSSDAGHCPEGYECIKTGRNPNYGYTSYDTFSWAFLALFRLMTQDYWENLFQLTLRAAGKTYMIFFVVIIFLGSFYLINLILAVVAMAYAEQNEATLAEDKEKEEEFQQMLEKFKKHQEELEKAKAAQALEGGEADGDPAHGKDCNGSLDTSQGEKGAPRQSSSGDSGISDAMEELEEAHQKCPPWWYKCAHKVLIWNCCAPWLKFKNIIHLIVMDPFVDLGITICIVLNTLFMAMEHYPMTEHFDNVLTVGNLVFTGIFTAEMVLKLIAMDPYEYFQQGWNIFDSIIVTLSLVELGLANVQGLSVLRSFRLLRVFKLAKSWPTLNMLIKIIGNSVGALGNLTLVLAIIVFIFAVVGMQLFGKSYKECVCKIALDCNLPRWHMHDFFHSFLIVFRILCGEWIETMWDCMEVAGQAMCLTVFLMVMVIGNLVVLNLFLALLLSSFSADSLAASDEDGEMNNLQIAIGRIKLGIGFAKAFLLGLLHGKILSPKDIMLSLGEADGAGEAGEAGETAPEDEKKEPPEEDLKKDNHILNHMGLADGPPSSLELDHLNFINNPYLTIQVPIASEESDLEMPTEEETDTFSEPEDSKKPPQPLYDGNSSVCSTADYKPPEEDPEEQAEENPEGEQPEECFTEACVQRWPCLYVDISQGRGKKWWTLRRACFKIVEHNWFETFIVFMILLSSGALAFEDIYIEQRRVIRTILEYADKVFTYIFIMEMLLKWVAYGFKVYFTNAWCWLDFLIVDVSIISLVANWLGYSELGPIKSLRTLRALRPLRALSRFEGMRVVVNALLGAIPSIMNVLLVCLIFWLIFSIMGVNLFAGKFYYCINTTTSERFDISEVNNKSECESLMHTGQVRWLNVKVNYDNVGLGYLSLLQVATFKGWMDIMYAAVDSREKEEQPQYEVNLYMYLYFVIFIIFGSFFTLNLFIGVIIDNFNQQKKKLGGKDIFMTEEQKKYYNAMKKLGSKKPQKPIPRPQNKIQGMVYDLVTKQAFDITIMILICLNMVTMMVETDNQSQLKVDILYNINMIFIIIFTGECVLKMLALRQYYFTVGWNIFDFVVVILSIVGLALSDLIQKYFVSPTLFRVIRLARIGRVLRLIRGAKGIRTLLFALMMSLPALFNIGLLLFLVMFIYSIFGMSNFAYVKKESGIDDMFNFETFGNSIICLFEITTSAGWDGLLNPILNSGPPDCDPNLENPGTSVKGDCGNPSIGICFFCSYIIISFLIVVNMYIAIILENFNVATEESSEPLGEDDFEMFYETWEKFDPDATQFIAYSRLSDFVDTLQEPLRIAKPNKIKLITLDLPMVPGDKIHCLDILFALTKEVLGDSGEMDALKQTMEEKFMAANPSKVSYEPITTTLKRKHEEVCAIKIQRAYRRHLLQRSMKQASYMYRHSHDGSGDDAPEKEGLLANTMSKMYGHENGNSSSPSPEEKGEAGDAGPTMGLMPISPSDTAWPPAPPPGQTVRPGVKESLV

hNav1.5, sequence (Q14524 whole entry): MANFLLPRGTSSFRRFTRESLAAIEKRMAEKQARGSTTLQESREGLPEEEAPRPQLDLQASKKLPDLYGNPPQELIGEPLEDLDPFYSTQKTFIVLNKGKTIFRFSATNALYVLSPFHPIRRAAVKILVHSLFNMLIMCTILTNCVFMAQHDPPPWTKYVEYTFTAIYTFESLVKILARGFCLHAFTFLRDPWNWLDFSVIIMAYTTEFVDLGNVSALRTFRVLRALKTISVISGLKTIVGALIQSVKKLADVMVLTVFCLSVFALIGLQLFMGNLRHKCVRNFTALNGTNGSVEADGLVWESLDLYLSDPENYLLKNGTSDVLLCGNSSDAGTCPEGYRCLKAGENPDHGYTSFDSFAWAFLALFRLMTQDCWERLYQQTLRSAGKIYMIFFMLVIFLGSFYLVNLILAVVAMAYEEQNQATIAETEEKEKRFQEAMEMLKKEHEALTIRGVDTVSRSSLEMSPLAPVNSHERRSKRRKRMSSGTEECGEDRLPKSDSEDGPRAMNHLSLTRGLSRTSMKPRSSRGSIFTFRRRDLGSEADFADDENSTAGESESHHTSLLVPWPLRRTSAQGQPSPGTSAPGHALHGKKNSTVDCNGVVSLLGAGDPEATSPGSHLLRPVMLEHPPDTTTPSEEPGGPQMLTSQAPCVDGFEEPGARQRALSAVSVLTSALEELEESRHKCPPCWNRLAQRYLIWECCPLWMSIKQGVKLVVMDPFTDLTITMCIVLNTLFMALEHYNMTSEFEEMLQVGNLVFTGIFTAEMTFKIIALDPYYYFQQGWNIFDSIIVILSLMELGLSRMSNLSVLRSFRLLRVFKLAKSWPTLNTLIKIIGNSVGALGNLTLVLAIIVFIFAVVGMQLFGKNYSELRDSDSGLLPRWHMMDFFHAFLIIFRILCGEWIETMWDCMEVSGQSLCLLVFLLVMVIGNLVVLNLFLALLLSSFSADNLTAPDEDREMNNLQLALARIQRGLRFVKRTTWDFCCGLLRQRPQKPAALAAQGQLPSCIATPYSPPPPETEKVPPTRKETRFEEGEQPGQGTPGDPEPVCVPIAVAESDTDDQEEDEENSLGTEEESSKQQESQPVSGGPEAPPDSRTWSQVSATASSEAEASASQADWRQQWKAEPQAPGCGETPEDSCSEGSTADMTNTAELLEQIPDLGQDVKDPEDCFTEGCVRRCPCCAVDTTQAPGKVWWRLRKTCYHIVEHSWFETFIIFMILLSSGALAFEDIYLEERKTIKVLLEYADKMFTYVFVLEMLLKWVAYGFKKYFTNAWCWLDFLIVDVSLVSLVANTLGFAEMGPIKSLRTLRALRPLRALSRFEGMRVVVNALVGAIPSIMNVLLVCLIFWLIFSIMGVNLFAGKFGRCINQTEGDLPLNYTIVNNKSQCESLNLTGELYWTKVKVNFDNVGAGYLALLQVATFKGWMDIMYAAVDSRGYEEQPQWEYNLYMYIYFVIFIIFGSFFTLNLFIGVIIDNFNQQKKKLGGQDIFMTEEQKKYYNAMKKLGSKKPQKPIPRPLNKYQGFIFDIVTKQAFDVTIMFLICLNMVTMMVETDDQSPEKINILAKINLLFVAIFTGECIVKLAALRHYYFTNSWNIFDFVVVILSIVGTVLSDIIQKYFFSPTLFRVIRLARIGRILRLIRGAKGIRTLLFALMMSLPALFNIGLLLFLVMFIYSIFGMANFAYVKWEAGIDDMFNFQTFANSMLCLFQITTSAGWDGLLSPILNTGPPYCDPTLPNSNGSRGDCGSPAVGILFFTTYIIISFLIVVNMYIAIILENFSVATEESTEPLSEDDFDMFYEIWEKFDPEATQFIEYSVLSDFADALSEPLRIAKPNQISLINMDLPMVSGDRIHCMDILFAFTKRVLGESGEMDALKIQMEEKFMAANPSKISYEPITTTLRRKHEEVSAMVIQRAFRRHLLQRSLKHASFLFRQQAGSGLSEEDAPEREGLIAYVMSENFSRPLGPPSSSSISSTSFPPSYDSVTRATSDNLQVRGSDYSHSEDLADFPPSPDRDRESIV

| SMILES | Nav1.5/Nav1.7 (hNav1.5) | Nav1.4/Nav1.7 (hNav1.4) |
| --- | --- | --- |
| C#CC[C@H](N)C(=O)NCCOCCOCCOCCOCCOCCOCCOCCOCCOCCOCCOCCOCCC(=O)NCCCC[C@@H]1NC(=O)[C@@H]2CSSC[C@H](NC(=O)[C@@H](N)Cc3ccc(O)cc3)C(=O)N[C@@H](CCC(N)=O)C(=O)N[C@@H](CCCCN)C(=O)N[C@@H](Cc3c[nH]c4ccccc34)C(=O)N[C@@H](CCCC)C(=O)N[C@@H](Cc3c[nH]c4ccccc34)C(=O)N[C@@H]([C@@H](C)O)C(=O)N[C@H]3CSSC[C@H](NC(=O)[C@H](CCC(=O)O)NC(=O)[C@H](CC(C)C)NC(=O)CNC1=O)C(=O)N[C@@H](CCCCN)C(=O)N[C@@H](CC(C)C)C(=O)N[C@@H](Cc1c[nH]c4ccccc14)C(=O)N[C@H](C(=O)N[C@@H](CCCNC(=N)N)C(=O)N[C@@H](CCCCN)C(=O)N[C@H](C(=O)N[C@@H](Cc1c[nH]c4ccccc14)C(N)=O)[C@@H](C)CC)CSSC[C@H](NC(=O)[C@H](C)NC(=O)[C@H](CCCNC(=N)N)NC(=O)[C@H](CCCCN)NC(=O)[C@H](CO)NC(=O)[C@H](CC(=O)O)NC3=O)C(=O)N2 [compound 292] | 3 | 2 |
| CCCC[C@@H]1NC(=O)[C@H](Cc2c[nH]c3ccccc23)NC(=O)[C@H](CCCCN)NC(=O)[C@H](CCC(N)=O)NC(=O)[C@@H](NC(=O)[C@@H](N)Cc2ccc(O)cc2)CSSC[C@@H]2NC(=O)[C@@H]3CSSC[C@@H](C(=O)N[C@@H](CCCNC(=N)N)C(=O)N[C@@H](CCCCN)C(=O)N[C@H](C(=O)N[C@@H](Cc4c[nH]c5ccccc45)C(N)=O)[C@@H](C)CC)NC(=O)[C@H](Cc4c[nH]c5ccccc45)NC(=O)[C@H](CC(C)C)NC(=O)[C@H](CCCCN)NC(=O)[C@H](CSSC[C@H](NC(=O)[C@H]([C@@H](C)O)NC(=O)[C@H](Cc4c[nH]c5ccccc45)NC1=O)C(=O)N[C@@H](CC(=O)O)C(=O)N[C@@H](CCCCN=[N+]=[N-])C(=O)N[C@@H](CCCCN)C(=O)N[C@@H](CCCNC(=N)N)C(=O)N[C@@H](C)C(=O)N3)NC(=O)[C@H](CCC(=O)O)NC(=O)[C@H](CC(C)C)NC(=O)CNC(=O)[C@H](CCC(=O)O)NC2=O [compound 305] | 0 | 0 |
| C#CC[C@@H]1NC(=O)[C@H](CC(=O)O)NC(=O)[C@@H]2CSSC[C@@H]3NC(=O)[C@H](CCCNC(=N)N)NC(=O)[C@H](CC(C)C)NC(=O)CNC(=O)[C@H](CCC(=O)O)NC(=O)[C@H](CSSC[C@H](NC(=O)[C@@H](N)Cc4ccc(O)cc4)C(=O)N[C@@H](CCC(N)=O)C(=O)N[C@@H](CCCCN)C(=O)N[C@@H](Cc4c[nH]c5ccccc45)C(=O)N[C@@H](CCCC)C(=O)N[C@@H](Cc4c[nH]c5ccccc45)C(=O)N[C@@H]([C@@H](C)O)C(=O)N2)NC(=O)[C@H](CSSC[C@@H](C(=O)N[C@@H](CCCNC(=N)N)C(=O)N[C@@H](CCCCN)C(=O)N[C@@H](CCC(=O)O)C(=O)N[C@H](C(N)=O)[C@@H](C)CC)NC(=O)[C@H](Cc2c[nH]c4ccccc24)NC(=O)[C@H](CC(C)C)NC(=O)[C@H](CCCCN)NC3=O)NC(=O)[C@H](C)NC(=O)[C@H](CCCNC(=N)N)NC(=O)[C@H](CCCCN)NC1=O [compound 330] | 7841 | 291 |
| CCCC[C@@H]1NC(=O)[C@H](Cc2c[nH]c3ccccc23)NC(=O)[C@H](CCCCN)NC(=O)[C@H](CCC(N)=O)NC(=O)[C@@H](NC(=O)[C@H](Cc2ccc(O)cc2)NC(=O)[C@@H](N)CCN=[N+]=[N-])CSSC[C@@H]2NC(=O)[C@@H]3CSSC[C@@H](C(=O)N[C@@H](CCCNC(=N)N)C(=O)N[C@@H](CCCCN)C(=O)N[C@H](C(=O)N[C@@H](Cc4c[nH]c5ccccc45)C(N)=O)[C@@H](C)CC)NC(=O)[C@H](Cc4c[nH]c5ccccc45)NC(=O)[C@H](CC(C)C)NC(=O)[C@H](CCCCN)NC(=O)[C@H](CSSC[C@H](NC(=O)[C@H]([C@@H](C)O)NC(=O)[C@H](Cc4c[nH]c5ccccc45)NC1=O)C(=O)N[C@@H](CC(=O)O)C(=O)N[C@@H](CO)C(=O)N[C@@H](CCCCN)C(=O)N[C@@H](CCCNC(=N)N)C(=O)N[C@@H](C)C(=O)N3)NC(=O)[C@H](CCC(=O)O)NC(=O)[C@H](CC(C)C)NC(=O)CNC(=O)[C@H](CCC(=O)O)NC2=O [compound 308] | 3351 | 1068 |
